Here are results for one molecule from patent EP4032530B1, “PROLONGED-RELEASE FURAZIDIN COMPOSITION” (Adamed Pharma S.A., priority 2021, dated 2022).

Data set [1] can be described thus: Phase I pivotal food effect pharmacokinetic study FUR-PK-03-19 (755/19). Format: in vivo, human. As to conditions: PK phase I studies. As to the method:
Study title: Randomized, open-label, three-period, cross-over, food effect pharmacokinetic study comparing bioavailability of furazidin, prolonged-release tablets, 200 mg having a composition of IR/1+MR/1 according to Example 1 in healthy subjects in different fed conditions.
Aim of the study: The main study objective was to evaluate the pharmacokinetic properties and to compare the bioavailability of the Test product in healthy volunteers under different fed conditions.
Study conduct: In this bioavailability study, the pharmacokinetic profile was tested for the Test formulation (prolonged-release bilayer tablet, IR/1+MR/1) having a strength of 200 mg furazidin. The bioavailability study was carried out under different fed conditions (after a high-protein meal or after a high-fat, high-calorie meal) and in fasting state in 30 healthy subjects. On the day of dosing, the subjects received randomly after an overnight fast a single dose of the modified-release formulation, administered on empty stomach (fasting conditions, Treatment A) or after a high-protein meal (Treatment B) or after a high-fat, high-calorie meal (Treatment C), each time with 240 mL of water. For each subject, there were 3 dosing periods, separated by a washout period of 7 days. […]
The pharmacokinetic data for plasma and urine were statistically analysed in 29 subjects. […]

Another data set concerns Escherichia coli. As to conditions: constant level, unchanged for several decades; cited from earlier work.
For data set [2] the following is noted: upon oral administration; cited from earlier work.

For `O=C1CN(/N=C/C=C/c2ccc([N+](=O)[O-])o2)C(=O)N1` [furazidin], the site of absorption entry in data set [1] was “mainly absorbed in the upper part of the small intestine”. The “susceptibility of Escherichia coli to furazidin” value in the data set on Escherichia coli is recorded as “approx. 90%”. In data set [2], the half-life entry is “below 1 hour”.
